{"source": "PubChem BioAssay AID1963440", "about": "(Molecular Pharmacology Branch, DTP, NCI, 2024)", "system": "NCI-H1417 complex spheroids, growth % test/control", "assay": "Anticancer human tumor NCI-H1417 cell line growth inhibition [Asc];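 on all read-outs here: spheroids exposed to compounds for 7 days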;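 on viability, T/C: 100% = DMSO vehicle control wells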", "settings": "for IC50: curve of first compound; for viability, T/C: stronger effect = lower value", "outline": "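Complex solid-tumor spheroids incorporating human endothelial and mesenchymal stem cells received single agents or combinations over half-log dilution ranges anchored to clinical Cmax.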"}
{"smiles": "Cc1nc(N2CCC3(CC2)COC(C)C3N)c(CO)nc1Sc1ccnc(N)c1Cl", "note": "(configuration not stated) + CNC(C)C(=O)NC1CN(S(=O)(=O)c2cccc(S(=O)(=O)N3CCC4CCC(C(=O)NC(c5ccccc5)c5ccccc5)N4C(=O)C(NC(=O)C(C)NC)C3)c2)CCC2CCC(C(=O)NC(c3ccccc3)c3ccccc3)N2C1=O", "values": [{"measurement": "IC50", "setting": "second compound 0.00316 µM", "value": "> 3000", "unit": "nM"}, {"measurement": "IC50", "setting": "second compound 0.01 µM", "value": "> 3000", "unit": "nM"}, {"measurement": "IC50", "setting": "second compound 0.0316 µM", "value": "> 3000", "unit": "nM"}, {"measurement": "IC50", "setting": "second compound 0.1 µM", "value": "> 3000", "unit": "nM"}, {"measurement": "IC50", "setting": "second compound 0.316 µM", "value": "> 3000", "unit": "nM"}, {"measurement": "IC50", "setting": "second compound 1 µM", "value": "> 3000", "unit": "nM"}, {"measurement": "viability, T/C", "setting": "second compound 0.00316 µM, first compound 0.00949 µM", "value": 99.4, "unit": "%"}, {"measurement": "viability, T/C", "setting": "second compound 0.00316 µM, first compound 0.03 µM", "value": 89, "unit": "%"}, {"measurement": "viability, T/C", "setting": "second compound 0.00316 µM, first compound 0.0949 µM", "value": 85.8, "unit": "%"}, {"measurement": "viability, T/C", "setting": "second compound 0.00316 µM, first compound 0.3 µM", "value": 81.9, "unit": "%"}, {"measurement": "viability, T/C", "setting": "second compound 0.00316 µM, first compound 0.949 µM", "value": 93.4, "unit": "%"}, {"measurement": "viability, T/C", "setting": "second compound 0.00316 µM, first compound 3 µM", "value": 92.6, "unit": "%"}, {"measurement": "viability, T/C", "setting": "second compound 0.01 µM, first compound 0.00949 µM", "value": 91.9, "unit": "%"}, {"measurement": "viability, T/C", "setting": "second compound 0.01 µM, first compound 0.03 µM", "value": 100, "unit": "%"}, {"measurement": "viability, T/C", "setting": "second compound 0.01 µM, first compound 0.0949 µM", "value": 89.3, "unit": "%"}, {"measurement": "viability, T/C", "setting": "second compound 0.01 µM, first compound 0.3 µM", "value": 87.8, "unit": "%"}, {"measurement": "viability, T/C", "setting": "second compound 0.01 µM, first compound 0.949 µM", "value": 96.9, "unit": "%"}, {"measurement": "viability, T/C", "setting": "second compound 0.01 µM, first compound 3 µM", "value": 84.1, "unit": "%"}, {"measurement": "viability, T/C", "setting": "second compound 0.0316 µM, first compound 0.00949 µM", "value": 93.9, "unit": "%"}, {"measurement": "viability, T/C", "setting": "second compound 0.0316 µM, first compound 0.03 µM", "value": 92.2, "unit": "%"}, {"measurement": "viability, T/C", "setting": "second compound 0.0316 µM, first compound 0.0949 µM", "value": 101, "unit": "%"}, {"measurement": "viability, T/C", "setting": "second compound 0.0316 µM, first compound 0.3 µM", "value": 83.6, "unit": "%"}, {"measurement": "viability, T/C", "setting": "second compound 0.0316 µM, first compound 0.949 µM", "value": 98.2, "unit": "%"}, {"measurement": "viability, T/C", "setting": "second compound 0.0316 µM, first compound 3 µM", "value": 79, "unit": "%"}, {"measurement": "viability, T/C", "setting": "second compound 0.1 µM, first compound 0.00949 µM", "value": 87.5, "unit": "%"}, {"measurement": "viability, T/C", "setting": "second compound 0.1 µM, first compound 0.03 µM", "value": 86.6, "unit": "%"}, {"measurement": "viability, T/C", "setting": "second compound 0.1 µM, first compound 0.0949 µM", "value": 91.7, "unit": "%"}, {"measurement": "viability, T/C", "setting": "second compound 0.1 µM, first compound 0.3 µM", "value": 86.2, "unit": "%"}, {"measurement": "viability, T/C", "setting": "second compound 0.1 µM, first compound 0.949 µM", "value": 86.9, "unit": "%"}, {"measurement": "viability, T/C", "setting": "second compound 0.1 µM, first compound 3 µM", "value": 86.2, "unit": "%"}, {"measurement": "viability, T/C", "setting": "second compound 0.316 µM, first compound 0.00949 µM", "value": 82.8, "unit": "%"}, {"measurement": "viability, T/C", "setting": "second compound 0.316 µM, first compound 0.03 µM", "value": 90.2, "unit": "%"}, {"measurement": "viability, T/C", "setting": "second compound 0.316 µM, first compound 0.0949 µM", "value": 88, "unit": "%"}, {"measurement": "viability, T/C", "setting": "second compound 0.316 µM, first compound 0.3 µM", "value": 88.8, "unit": "%"}, {"measurement": "viability, T/C", "setting": "second compound 0.316 µM, first compound 0.949 µM", "value": 84.1, "unit": "%"}, {"measurement": "viability, T/C", "setting": "second compound 0.316 µM, first compound 3 µM", "value": 94.2, "unit": "%"}, {"measurement": "viability, T/C", "setting": "second compound 1 µM, first compound 0.00949 µM", "value": 78.1, "unit": "%"}, {"measurement": "viability, T/C", "setting": "second compound 1 µM, first compound 0.03 µM", "value": 98.6, "unit": "%"}, {"measurement": "viability, T/C", "setting": "second compound 1 µM, first compound 0.0949 µM", "value": 90.2, "unit": "%"}, {"measurement": "viability, T/C", "setting": "second compound 1 µM, first compound 0.3 µM", "value": 89.8, "unit": "%"}, {"measurement": "viability, T/C", "setting": "second compound 1 µM, first compound 0.949 µM", "value": 83.7, "unit": "%"}, {"measurement": "viability, T/C", "setting": "second compound 1 µM, first compound 3 µM", "value": 87.7, "unit": "%"}]}
{"smiles": "NC(=O)C(=Cn1cnc(-c2cc(C(F)(F)F)cc(C(F)(F)F)c2)n1)c1cncnc1", "note": "+ CCN1C(C(=O)NC23CCC(C(=O)O)(CC2)CC3)C(c2cccc(Cl)c2F)C2(C(=O)Nc3cc(Cl)ccc32)C12CCCCC2", "values": [{"measurement": "IC50", "setting": "second compound 0.03 µM", "value": 128, "unit": "nM"}, {"measurement": "IC50", "setting": "second compound 0.0949 µM", "value": 104, "unit": "nM"}, {"measurement": "IC50", "setting": "second compound 0.3 µM", "value": 100, "unit": "nM"}, {"measurement": "IC50", "setting": "second compound 0.949 µM", "value": 102, "unit": "nM"}, {"measurement": "IC50", "setting": "second compound 3 µM", "value": 59.1, "unit": "nM"}, {"measurement": "viability, T/C", "setting": "second compound 0.03 µM, first compound 0.000949 µM", "value": 95.9, "unit": "%"}, {"measurement": "viability, T/C", "setting": "second compound 0.03 µM, first compound 0.003 µM", "value": 112, "unit": "%"}, {"measurement": "viability, T/C", "setting": "second compound 0.03 µM, first compound 0.00949 µM", "value": 93.5, "unit": "%"}, {"measurement": "viability, T/C", "setting": "second compound 0.03 µM, first compound 0.03 µM", "value": 96, "unit": "%"}, {"measurement": "viability, T/C", "setting": "second compound 0.03 µM, first compound 0.0949 µM", "value": 59.7, "unit": "%"}, {"measurement": "viability, T/C", "setting": "second compound 0.03 µM, first compound 0.3 µM", "value": 21.9, "unit": "%"}, {"measurement": "viability, T/C", "setting": "second compound 0.0949 µM, first compound 0.000949 µM", "value": 96.7, "unit": "%"}, {"measurement": "viability, T/C", "setting": "second compound 0.0949 µM, first compound 0.003 µM", "value": 101, "unit": "%"}, {"measurement": "viability, T/C", "setting": "second compound 0.0949 µM, first compound 0.00949 µM", "value": 97.2, "unit": "%"}, {"measurement": "viability, T/C", "setting": "second compound 0.0949 µM, first compound 0.03 µM", "value": 87, "unit": "%"}, {"measurement": "viability, T/C", "setting": "second compound 0.0949 µM, first compound 0.0949 µM", "value": 52.9, "unit": "%"}, {"measurement": "viability, T/C", "setting": "second compound 0.0949 µM, first compound 0.3 µM", "value": 18.9, "unit": "%"}, {"measurement": "viability, T/C", "setting": "second compound 0.3 µM, first compound 0.000949 µM", "value": 97.7, "unit": "%"}, {"measurement": "viability, T/C", "setting": "second compound 0.3 µM, first compound 0.003 µM", "value": 97, "unit": "%"}, {"measurement": "viability, T/C", "setting": "second compound 0.3 µM, first compound 0.00949 µM", "value": 96.2, "unit": "%"}, {"measurement": "viability, T/C", "setting": "second compound 0.3 µM, first compound 0.03 µM", "value": 87.3, "unit": "%"}, {"measurement": "viability, T/C", "setting": "second compound 0.3 µM, first compound 0.0949 µM", "value": 51.6, "unit": "%"}, {"measurement": "viability, T/C", "setting": "second compound 0.3 µM, first compound 0.3 µM", "value": 19.1, "unit": "%"}, {"measurement": "viability, T/C", "setting": "second compound 0.949 µM, first compound 0.000949 µM", "value": 93.6, "unit": "%"}, {"measurement": "viability, T/C", "setting": "second compound 0.949 µM, first compound 0.003 µM", "value": 96.3, "unit": "%"}, {"measurement": "viability, T/C", "setting": "second compound 0.949 µM, first compound 0.00949 µM", "value": 85.1, "unit": "%"}, {"measurement": "viability, T/C", "setting": "second compound 0.949 µM, first compound 0.03 µM", "value": 73.9, "unit": "%"}, {"measurement": "viability, T/C", "setting": "second compound 0.949 µM, first compound 0.0949 µM", "value": 52.6, "unit": "%"}, {"measurement": "viability, T/C", "setting": "second compound 0.949 µM, first compound 0.3 µM", "value": 18.8, "unit": "%"}, {"measurement": "viability, T/C", "setting": "second compound 3 µM, first compound 0.000949 µM", "value": 97.5, "unit": "%"}, {"measurement": "viability, T/C", "setting": "second compound 3 µM, first compound 0.003 µM", "value": 98.8, "unit": "%"}, {"measurement": "viability, T/C", "setting": "second compound 3 µM, first compound 0.00949 µM", "value": 81.3, "unit": "%"}, {"measurement": "viability, T/C", "setting": "second compound 3 µM, first compound 0.03 µM", "value": 67.9, "unit": "%"}, {"measurement": "viability, T/C", "setting": "second compound 3 µM, first compound 0.0949 µM", "value": 38.1, "unit": "%"}, {"measurement": "viability, T/C", "setting": "second compound 3 µM, first compound 0.3 µM", "value": 16.3, "unit": "%"}]}
